Measurements: patent US5612317A, “Method for delivering estrogen” (priority 1994, dated 1997)

Columns and labels:
[1] = Side-effects and vaginal bleeding in ovariectomized rats dosed orally for two weeks; format: in vivo
Source text: Based on the results in rats and humans with the model vitamin D-3β-glucoside and experience with giving estradiol-3-(β-glucoside) to ovariectomized rats, there is no indication of potential additive or multiplicative toxicity.

[2] = Circulating concentration of 17β-estradiol and estrone in ovariectomized rats after daily oral dosing for two weeks (radioimmunoassay); format: in vivo; conditions: six ovariectomized rats per group
Method: De-conjugation of estradiol-3-(β-glucoside) to estradiol will occur slowly in peripheral tissues, and therefore, will maintain circulating levels of estradiol at a more physiologic level for a longer period of time. A study in humans with the vitamin D-3β-glucoside was conducted as a model compound. The blood level of vitamin D after an equimolar dose of vitamin D3 and vitamin D3 -3β-glucoside was compared. […] Thus, from this single dose vitamin D-glucoside study, there would not appear to be any hazard to the prolonged duration of action of the estradiol resulting from the slow de-conjugation of the estradiol-3-(β-glucoside). A study in ovariectomized rats was also conducted to determine the blood level of estradiol and estrone after receiving three different doses of either estradiol or estradiol-3-(β-glucoside) orally each day for two weeks. […] Thus, estradiol-3-(β-glucoside) will increase circulating concentrations of estradiol.
In vivo rat studies were carried out where estradiol-3-(β-glucoside) was given orally for two weeks to ovariectomized rats.
Circulating concentration of 17β-estradiol and estrone
in six ovariectomized rats per group that received an oral
dose of either 17β-estradiol or 17β-estradiol-3 β-
glucoside (estradiol-glc) each day for two weeks.

[3] = injected into normal women; cited from earlier work
estradiol receptor = conditions: "there is evidence"; no method given; cited from earlier work
[4] = Incubation of 3H-vitamin D3-glucoside with rat intestinal homogenate, reverse phase HPLC; format: in vitro ADME; conditions: 3 hours at 37° C
Method: FIG. 1A and FIG. 1B depict reverse phase HPLC (2% H2 O/methanol, 1.5 ml/min) of ^3 H-vitamin D3 -glucoside before (FIG. 1A) and after (FIG. 1B) incubation with rat intestinal homogenate for 3 hours at 37° C.
(§1) A study was conducted whereby ^3 H-vitamin D3 -3β-glucoside was incubated with intestine and kidney homogenates. […] Therefore, the same results for estradiol-3β-glucoside would be expected since vitamin D and estradiol are both fat soluble sterols.

[5] = Incubation of 3H-vitamin D3-glucoside with rat kidney homogenate, reverse phase HPLC; format: in vitro ADME; conditions: 3 hours at 37° C
Method: FIG. 1C depicts reverse phase HPLC (2% H2 O/methanol, 1.5 ml/min) of ^3 H-vitamin D3 -glucoside after incubation with rat kidney homogenate for 3 hours at 37° C.
as §1

[6] = listed as 3 H-vitamin D3 -glucoside

C[C@]12CC[C@@H]3c4ccc(O)cc4CC[C@H]3[C@@H]1CC[C@@H]2O [estradiol, 17β-estradiol, reference compound]
Untoward side-effects or vaginal bleeding ([1]; oral, two weeks, ovariectomized rats): No untoward side-effects or vaginal bleeding was noted | Blood concentration of estradiol ([2]; dose 1, each day for two weeks): 3.5 ± 0.7 pg/mL | Blood concentration of estradiol ([2]; dose 10, each day for two weeks): 8.7 ± 2.1 pg/mL | Blood concentration of estradiol ([2]; dose 15, each day for two weeks): 46.8 ± 10.4 pg/mL

C[C@]12CC[C@@H]3c4ccc(O)cc4CC[C@H]3[C@@H]1CC[C@@H]2OC1O[C@H](CO)[C@@H](O)[C@H](O)[C@H]1O (stereo partly drawn) [17β-estradiol-17-glucoside]
Metabolite recovered in urine [3]: the 3-glucuronide derivatives of each compound were recovered in the urine

C[C@]12CC[C@@H]3c4ccc(O[C@@H]5O[C@H](CO)[C@@H](O)[C@H](O)[C@H]5O)cc4CC[C@H]3[C@@H]1CC[C@@H]2O [estradiol-glc, 17β-estradiol-3β-glucoside]
Interaction with the estradiol receptor (estradiol receptor): does not interact with the estradiol receptor | Untoward side-effects or vaginal bleeding ([1]; rat, in vivo, po): No untoward side-effects or vaginal bleeding was noted

C[C@]12CC[C@@H]3c4ccc(O)cc4CC[C@H]3[C@@H]1CC[C@H]2O[C@@H]1O[C@H](CO)[C@@H](O)[C@H](O)[C@H]1O [17α-estradiol-17-glucoside]
Metabolite recovered in urine [3]: the 3-glucuronide derivatives of each compound were recovered in the urine

C=C1CC[C@H](O[C@@H]2O[C@H](CO)[C@@H](O)[C@H](O)[C@H]2O)C/C1=C/C=C1\CCC[C@]2(C)[C@@H]([C@H](C)CCCC(C)C)CC[C@@H]12 [vitamin D3 -3β-glucoside]
Metabolism of the glucoside / formation of 3H-vitamin D3 [4]: None of the vitamin D3 -3β-glucoside was metabolized in the intestinal homogenates | Metabolism of the glucoside / formation of 3H-vitamin D3 [4, 6]: No ^3 H-vitamin D3 was formed | De-conjugation of the glucoside / formation of 3H-vitamin D3 ([5]; listed as 3 H-vitamin D3 -3β-glucoside): only the kidney homogenate was capable of removing the glucoside from vitamin D3 | De-conjugation of the glucoside / formation of 3H-vitamin D3 [5, 6]: formation of ^3 H-vitamin D3 | De-conjugation of the glucoside / formation of 3H-vitamin D3 ([5]; listed as vitamin D-3β-glucoside): β-glucosidase(s) in the kidney are able to de-conjugate the β-glucoside from the vitamin D-3β-glucoside
